Among the data in patent publication EP0183271B1, “Lysin derivative and proteinase inhibitor” (Okamoto, Shosuke, priority 1984, dated 1986) are IC50 values, retold here.

Assay [1] deals with T1, Plasmin (Homo sapiens, UniProt P00747). The experiment in a line: biochemical. As to conditions: substrate S-2251. The procedure: (§1) (1) Evaluation of Antiplasmin Activity
(ii) Determination of prevention activity for S-2251 decomposition
An inhibitor sample is dissolved in a 0.05 M Tris-hydrochloric acid buffer solution (pH = 7.4) to make the total volume to 400 µl. To this solution, 50 pl of a 3 mM S-2251 solution is added and the mixture is incubated at a temperature of 37°C for 5 minutes in a constant temperature bath. Then, 50 pl of a 0.2 casein unit/ml human plasmin is added and the mixture is incubated at a temperature of 37°C for 4 minutes. Thereafter, the reaction is stopped by adding 50 µl of 50% acetic acid.
The absorbance of p-nitroaniline formed in the reaction mixture is determined at 405 nm. Thus, the concentration I50 of the inhibitor sample, at which the absorbance is one half (i.e., 1/2) of that obtained in the absence of the inhibitor, is determined.

The target of assay [2] is T1, Plasmin. The experiment in a line: biochemical. As to conditions: Table IV, present compounds; plasmin, fibrin decomposition; read-out: I50 Fibrin. The procedure:
as §1
(i) Determination of prevention activity for fibrin decomposition
0.18 M borate-physiological salt buffer solution (pH = 7.4) to make the total volme to 600 pl. To this buffer solution, 200 µl of a 0.2% bovin fibrinogen, 100 µl of a 0.3 cassein unit/ml human […] solution, and 100 µl of a 50 unit/ml bovine thrombin solution, all dissolved in the above-mentioned buffer, are added at a temperature of 37°C in a constant temperature bath. Then, the dissolution time of the fibrin mass formed above is determined.

In assay [3] the target is T1, Plasmin. Briefly: Antiplasmin activity: prevention of fibrinogen decomposition. The format is biochemical. As to conditions: Table IV, present compounds, read-out: I50 Fibrinogen. How it is done: as §1
(iii) Determination of prevention activity for fibrinogen
An inhibitor sample is dissolved in a 0.18 M borate-physiological salt buffer solution (pH = 7.4) to make the total volume to 400 µl. To this solution, 500 pl of a 0.4% bovine fibrinogen solution and 100 pl of a 1 casein unit/ml human plasmin solution, all dissolved in the above-mentioned buffer are added at a temperature of 37°C in a constant temperature bath. After the mixture is allowed to stand at a temprature of 37°C for 10 minutes, 3800 µl of the above-mentioned buffer containing (3.2 mM of tranexamic acid and 200 µl of a 50 unit/ml bovine thrombin solution are added to terminate the reaction. The mixture is incubated at a temperature of 37°C for 15 minutes to precipitate the fibrin. The fibrin mass thus precipitated is adhered to or wound around a glass rod and is then washed with water. The amount of the remaining fibrinogen is determined according to a tyrosine coloring method using a phenol reagent (see J. Biol. Chem., 73, 627 (1927). From the amount of the remaining fibrinogen thus determined, the amount of decomposed fibrinogen is calculated. Thus, the concentration 150 of the inhibitor sample, at which the amount of decomposed fibrinogen is one half (i.e., 1/2) of that obtained in the absence of the inhibitor sample, is determined.

The mark [4] stands for this setting: Table IV, present compounds, plasmin, read-out: I50 S-2251.

Molecules are shown by their SMILES. Counter-ions that a name gives are not always drawn.

T1 sequence (P00747 581-810 limits assumed): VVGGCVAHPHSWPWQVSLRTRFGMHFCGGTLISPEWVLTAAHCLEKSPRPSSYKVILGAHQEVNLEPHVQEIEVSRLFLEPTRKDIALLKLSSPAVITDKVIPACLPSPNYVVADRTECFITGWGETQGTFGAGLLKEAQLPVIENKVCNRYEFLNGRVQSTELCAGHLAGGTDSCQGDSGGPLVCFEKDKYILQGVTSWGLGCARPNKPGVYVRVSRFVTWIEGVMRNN
T1 sequence (P00747 97-580 partner limits assumed): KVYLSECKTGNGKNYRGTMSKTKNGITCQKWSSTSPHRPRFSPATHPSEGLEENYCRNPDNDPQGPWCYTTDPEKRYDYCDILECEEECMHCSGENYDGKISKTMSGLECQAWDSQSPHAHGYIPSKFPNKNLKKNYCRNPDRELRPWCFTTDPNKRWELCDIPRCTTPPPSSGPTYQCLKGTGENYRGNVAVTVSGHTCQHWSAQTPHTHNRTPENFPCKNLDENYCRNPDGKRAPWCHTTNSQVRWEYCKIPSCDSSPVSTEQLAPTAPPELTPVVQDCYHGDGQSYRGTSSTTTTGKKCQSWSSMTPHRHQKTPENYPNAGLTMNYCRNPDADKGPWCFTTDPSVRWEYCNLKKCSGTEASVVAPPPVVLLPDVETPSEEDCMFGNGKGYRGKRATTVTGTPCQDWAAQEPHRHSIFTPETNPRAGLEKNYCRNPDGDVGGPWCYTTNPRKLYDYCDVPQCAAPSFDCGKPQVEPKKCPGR

On to `CCOC(=O)c1cc(NC(=O)[C@H](CCCCN)NS(=O)(=O)c2cccc3ccccc23)cc(C(=O)OCC)c1` [Compound No. 11], for which the IC50 is 390 µM at Plasmin [1] (setting [4]), 75 µM at Plasmin [2] and 80 µM on Plasmin [3].

Regarding `Cc1ccc(S(=O)(=O)N[C@@H](CCCCN)C(=O)Nc2ccc(C(=O)c3ccccc3)cc2)cc1` [compound 36], the figures for the IC50 at Plasmin [1] (setting [4]) and at Plasmin [3] were 140 µM and 200 µM, respectively.

Regarding `Cc1ccc(S(=O)(=O)N[C@@H](CCCCN)C(=O)Nc2ccc([N+](=O)[O-])cc2)cc1` [Compound No. 3, N^2-(p-toluenesulfonyl)-L-lysine p-nitroanilide hydrochloride], the IC50 on Plasmin [1] (Table III, known compounds of Table II, *1: 0% Inhibition at the given concentration, read-out: I50 Plasmin S-2251) is 50000 µM; at Plasmin [1] (setting [4]), 700 µM; at Plasmin [2], 780 µM; on Plasmin [3], 900 µM.
